The source of these data is patent US12234499B2, “Compositions, methods, systems and/or kits for detecting antimicrobial resistance in bacteria” (priority 2016, dated 2025).

Read-outs that look alike come from different tables or passages of the source.

Holding throughout (format): cell-based
The test system of experiment [1] is bacteria expressing Classes A, B or D. The experiment in a line: Growth test with CLOX (FIG. 31). The conditions noted are these: CLOX at a concentration of about 100 μg/ml. The method, then: (§1) Non-limiting embodiments of detection tests for enteric and non-fermenting bacteria, with various concentration ranges of one or more antibiotics, and various concentration ranges for one or more inhibitors are shown in FIG. 1-FIG. 24 and FIG. 31. These figures illustrate the concentration of the antibiotic being tested (in μg/ml) along the x-axis (not every concentration is tested in every figure), and the amount of growth of bacteria in the sample in the y-axis. The boxes illustrate the median, interquartile range, non-outlier minimum and maximum; with asterisks representing single outliers. Each figure has a panel for Class A, Class B, and Class D producing bacteria, as well as a panel for non-carbapenemase producing bacteria (NEG). In some embodiments, the detection tests described herein are not performed by imaging a change in cell morphology.
(§2) In some embodiments, the detection tests can comprise a plurality of wells comprising enteric bacteria, CLOX at 0.1 mg/ml, and MEM over a range of concentrations of about 0.0156 μg/ml to about 64 μg/ml (FIG. 31).

The test system of experiment [2] is Bacteria expressing Class C β-lactamases. Kind of experiment: Growth test with CLOX (FIG. 31). The method, then: as §1, §2
Experiment [3] deals with enteric bacteria expressing Class D carbapenemase. The experiment in a line: Growth of enteric bacteria in the presence of TEM (FIG. 1). As for the experimental part:
as §1
(§3) By way of example, FIG. 1 illustrates a test of various enteric bacteria grown in the presence of several concentrations of TEM.
(§4) In some embodiments, the detection tests can comprise a plurality of wells comprising enteric bacteria and TEM over a range of concentrations of about 12 μg/ml to about 512 μg/ml (FIG. 1).

For experiment [4], the system named is enteric bacteria expressing Class A carbapenemase. The description is as above. The conditions noted are these: Class A enteric bacterial strains. The method, then:
as §1, §3, §4

The test system of experiment [5] is non-carbapenemase producing (NEG) enteric bacteria. The experiment is described as above. The conditions noted are these: nearly all NEG enteric bacteria. As for the experimental part: as §1, §3, §4
The test system of experiment [6] is enteric bacteria expressing Class B carbapenemase. The description is as above. As for the experimental part: as §1, §3, §4
The subject of the next experiment is K. ozaenae 0096. Kind of experiment: Carbapenem MIC of study isolate. The conditions noted are these: KPC.
Another experiment deals with K. pneumoniae 0047. The experiment in a line: Carbapenem MIC of study isolate. The conditions noted are these: Klebsiella pneumoniae, OmpK35.
In another experiment the test system is K. pneumoniae G1685. The experiment in a line: Carbapenem MIC of study isolate. The conditions noted are these: Klebsiella pneumoniae, CMY-2-like.
A further experiment deals with K. pneumoniae G1758. Kind of experiment: Carbapenem MIC of study isolate. The conditions noted are these: Klebsiella pneumoniae, CLSI MHT negative control.
In the next experiment the test system is E. cloacae G1691. Kind of experiment: Carbapenem MIC of study isolate. The conditions noted are these: Enterobacter cloacae; IMP-8-producing E. cloacae G1691.
A further experiment deals with A. baumannii G1734. Kind of experiment: Carbapenem MIC of study isolate. The conditions noted are these: Acinetobacter baumannii, OXA-40.
A further experiment deals with K. pneumoniae G1675. The experiment in a line: Carbapenem MIC of study isolate. The conditions noted are these: Klebsiella pneumoniae, KPC-2, SHV-5-like.
Another experiment relates to K. pneumoniae G1511. Kind of experiment: Carbapenem MIC of study isolate. The conditions noted are these: Klebsiella pneumoniae, KPC-4, read-out: MIC.
The next experiment has as its system P. aeruginosa G15019. The experiment in a line: Carbapenem MIC of study isolate.
Another experiment has as its system S. marcescens G153. Kind of experiment: Carbapenem MIC of study isolate. The conditions noted are these: Serratia marcescens, KPC.
For the next experiment, the system named is P. aeruginosa G15. Kind of experiment: Carbapenem MIC of study isolate. The conditions noted are these: Pseudomonas aeruginosa, KPC-5.
A further experiment concerns E. cloacae 0032. The experiment in a line: Carbapenem MIC of study isolate. The conditions noted are these: Enterobacter cloacae, KPC-3, TEM-1.
The test system of the next experiment is E. aerogenes G1648. The experiment in a line: Carbapenem MIC of study isolate. The conditions noted are these: Klebsiella aerogenes, High AmpC.
The test system of the next experiment is P. mirabilis 0155. Kind of experiment: Carbapenem MIC of study isolate. The conditions noted are these: Proteus mirabilis, KPC.
In the next experiment the test system is E. cloacae G1637. Kind of experiment: Carbapenem MIC of study isolate. The conditions noted are these: Enterobacter cloacae, High AmpC.
For another experiment, the system named is E. coli 0086. Kind of experiment: Carbapenem MIC of study isolate. The conditions noted are these: Escherichia coli, CTX-M-9.
The next experiment concerns C. freundii G1706. Kind of experiment: Carbapenem MIC of study isolate. The conditions noted are these: Citrobacter freundii, KPC.
The next experiment relates to K. pneumoniae 0113. The experiment in a line: Carbapenem MIC of study isolate. The conditions noted are these: Klebsiella pneumoniae, KPC-3.
The test system of the next experiment is K. pneumoniae G158. Kind of experiment: Carbapenem MIC of study isolate. The conditions noted are these: Klebsiella pneumoniae, KPC-8.
In another experiment the test system is K. oxytoca G1640. The experiment in a line: Carbapenem MIC of study isolate. The conditions noted are these: Klebsiella oxytoca, KPC.
Another experiment has as its system E. coli G164. The experiment in a line: Carbapenem MIC of study isolate. The conditions noted are these: Escherichia coli, High AmpC (Table 2), SHV-12-like (Table 4.2).
The subject of the next experiment is K. pneumoniae 0109. The experiment in a line: Carbapenem MIC of study isolate. The conditions noted are these: Klebsiella pneumoniae, CTX-M-15, TEM-1, SHV-1.
The subject of a further experiment is K. pneumoniae 0043. The experiment in a line: Carbapenem MIC of study isolate. The conditions noted are these: Klebsiella pneumoniae, SHV-12, OmpK36.
The test system of another experiment is P. mirabilis 0156. Kind of experiment: Carbapenem MIC of study isolate. The conditions noted are these: Proteus mirabilis, KPC.
Another experiment deals with E. coli 0119. Kind of experiment: Carbapenem MIC of study isolate. The conditions noted are these: Escherichia coli, NDM.
A further experiment concerns P. mirabilis G1745. Kind of experiment: Carbapenem MIC of study isolate. The conditions noted are these: Proteus mirabilis, CMY, TEM-1-like.
The next experiment concerns P. aeruginosa G15557. The experiment in a line: Carbapenem MIC of study isolate. The conditions noted are these: VIM-like.
The subject of the next experiment is A. baumannii 0052. The experiment in a line: Carbapenem MIC of study isolate. The conditions noted are these: Acinetobacter baumannii, OXA-58.
In another experiment the test system is E. aerogenes G1614. The experiment in a line: Carbapenem MIC of study isolate. The conditions noted are these: Klebsiella aerogenes, High AmpC.
In a further experiment the test system is K. pneumoniae G157. Kind of experiment: Carbapenem MIC of study isolate. The conditions noted are these: Klebsiella pneumoniae, KPC-8.
In the next experiment the test system is E. coli G1693. Kind of experiment: Carbapenem MIC of study isolate. The conditions noted are these: Escherichia coli, High AmpC, S12like (Table 2), High AmpC (Table 4.2).
The next experiment deals with E. coli 0137. The experiment in a line: Carbapenem MIC of study isolate. The conditions noted are these: Escherichia coli, NDM-6.
For another experiment, the system named is M. morganii G1751. The experiment in a line: Carbapenem MIC of study isolate. The conditions noted are these: Morganella morganii, High AmpC.
The subject of a further experiment is K. oxytoca 0147. Kind of experiment: Carbapenem MIC of study isolate. The conditions noted are these: KPC.
A further experiment concerns E. cloacae G1735. Kind of experiment: Carbapenem MIC of study isolate. The conditions noted are these: Enterobacter cloacae.
The test system of a further experiment is K. pneumoniae 0042. The experiment in a line: Carbapenem MIC of study isolate. The conditions noted are these: Klebsiella pneumoniae, CTX-M-28, OmpK35, OmpK36.
Another experiment has as its system K. pneumoniae 0044. Kind of experiment: Carbapenem MIC of study isolate. The conditions noted are these: Klebsiella pneumoniae, CTX-M-15, TEM-1, SHV-1.
Another experiment deals with P. mirabilis G15185. Kind of experiment: Carbapenem MIC of study isolate. The conditions noted are these: Proteus mirabilis, IMP-27, read-out: MIC.
A further experiment deals with K. pneumoniae 0079. Kind of experiment: Carbapenem MIC of study isolate. The conditions noted are these: Klebsiella pneumoniae, CTX-M-14, OmpK35 (Table 4.2 also DHA-1).
The test system of a further experiment is E. coli 0058. The experiment in a line: Carbapenem MIC of study isolate. The conditions noted are these: Escherichia coli, ESBL.
The subject of a further experiment is K. pneumoniae G1725. Kind of experiment: Carbapenem MIC of study isolate. The conditions noted are these: Klebsiella pneumoniae, KPC.
Another experiment relates to E. cloacae G1693. Kind of experiment: Carbapenem MIC of study isolate. The conditions noted are these: Enterobacter cloacae, IMP-8 (Table 4.1).

Turning to `Cc1onc(-c2ccccc2Cl)c1C(=O)N[C@@H]1C(=O)N2[C@@H]1SC(C)(C)[C@@H]2C(=O)O` [CLOX, cloxacillin], the “sensitivity to CLOX” value in experiment [1] was “typically not”. Further, the “concentration at which bacteria are sensitive” value in experiment [2] was “about 100 μg/ml”.
With `CO[C@@]1(NC(=O)C(C(=O)O)c2ccsc2)C(=O)N2[C@@H](C(=O)O)C(C)(C)S[C@@H]21` (stereo partly drawn) [TEM, disodium 6beta-(2-carboxy-2-thien-3-ylacetamido)-6alpha-methoxypenicillanate], in experiment [3] (Class D enteric bacteria unaffected until this concentration), the “concentration reached before growth is affected” value was found to be 192 µg/mL. In addition, the MIC in [3] (bacteria expressing Class D, read-out: TEM concentration at which bacteria are sensitive (elevated MIC)) was at least 128 mg/L. Further, the “concentration at which nearly all strains tested are inhibited” value in experiment [4] came out at 24 µg/mL. The “sensitivity to TEM” value in experiment [5] is recorded as “sensitive to lowest concentration”. The “concentration at which bacteria begin to show sensitivity” value in experiment [6] (Class B enteric bacteria, decrease in the average growth line) amounted to 48 µg/mL. For the same compound, in experiment [6] (Class B enterics), the “concentration at which growth of most strains is inhibited” value was found to be 384 µg/mL.
`C[C@@H](O)[C@H]1C(=O)N2C(C(=O)O)=C(SCCN=CN)C[C@H]12` [Imipenem]: the MIC with K. ozaenae 0096 is over 8 mg/L; with K. pneumoniae 0047, over 8 mg/L; with K. pneumoniae G1685, over 8 mg/L; in the experiment on K. pneumoniae G1758, 4 mg/L; in the experiment on E. cloacae G1691 it was 4 mg/L; with A. baumannii G1734, over 8 mg/L. The MIC was over 8 mg/L in the experiment with K. pneumoniae G1675; 4 mg/L in the experiment on K. pneumoniae G1511; over 8 mg/L with P. aeruginosa G15019 (Pseudomonas aeruginosa, VIM-2, read-out: MIC); over 8 mg/L in the experiment with P. aeruginosa G15019 (VIM-2, listed as IPM); over 8 mg/L with S. marcescens G153; over 8 mg/L in the experiment with P. aeruginosa G15. Further, the MIC in the experiment with E. cloacae 0032 is 4 mg/L; in the experiment with E. aerogenes G1648, over 8 mg/L; with P. mirabilis 0155 it was over 8 mg/L; with E. cloacae G1637, over 8 mg/L; in the experiment with E. coli 0086 it was over 8 mg/L; in the experiment on C. freundii G1706 it was 2 mg/L. In addition, the MIC was over 8 mg/L in the experiment with K. pneumoniae 0113; over 8 mg/L with K. pneumoniae G158; over 8 mg/L in the experiment with K. oxytoca G1640; over 8 mg/L in the experiment with E. coli G164; 4 mg/L in the experiment with K. pneumoniae 0109; over 8 mg/L in the experiment with K. pneumoniae 0043. The MIC was 8 mg/L in the experiment with P. mirabilis 0156; over 8 mg/L with E. coli 0119; 8 mg/L in the experiment on P. mirabilis G1745; over 8 mg/L with P. aeruginosa G15557 (Pseudomonas aeruginosa, read-out: MIC); over 8 mg/L with P. aeruginosa G15557 (listed as IPM); over 8 mg/L in the experiment on A. baumannii 0052. Moreover, the MIC is over 8 mg/L with E. aerogenes G1614; over 8 mg/L in the experiment with K. pneumoniae G157; over 8 mg/L in the experiment on E. coli G1693; over 8 mg/L in the experiment with E. coli 0137; 4 mg/L in the experiment with M. morganii G1751; over 8 mg/L with K. oxytoca 0147 (listed as IPM). Moreover, the MIC is over 8 mg/L in the experiment on K. oxytoca 0147 (Klebsiella oxytoca, read-out: MIC); over 8 mg/L with E. cloacae G1735; 1 mg/L in the experiment with K. pneumoniae 0042; over 8 mg/L in the experiment on K. pneumoniae 0044; 8 mg/L in the experiment on P. mirabilis G15185; over 8 mg/L in the experiment on K. pneumoniae 0079. The values for the MIC in the experiment on E. coli 0058, in the experiment on K. pneumoniae G1725 and in the experiment with E. cloacae G1693 were at most 0.25 mg/L, over 8 mg/L and 4 mg/L, respectively.
